Several values for one entry are separate records, joined by “and”; a condition that tells them apart may be missing. Equal entries are not always repeated. Entries after “also recorded” stand apart in the source; their conditions may differ. Where two headings read alike, the source gives them in different places.
Experiments:
[1] = system: influenza A Puerto Rico 8/34/H1N1 (PR8) virus; assay: microbe, parasite or virus in culture; assay type: cell-based; details: for IC50: Influenza A virus, A549, 24 h, read-out: IC50 (concentration causing 50% reduction in viral infection); for Selectivity Index (SI): ratio CC50/IC50, A549
[2] = MTT cytotoxicity assay; assay type: cell-based, human; details: human
Description: (§1) The cytotoxicity of RSV derivatives was evaluated on A549 cells using MTT (3-(4,5-dimethylthiazol-2-yl)-2,5-diphenyl tetrazolium bromide) reagent (Sigma-Aldrich, St. Louis, MO, USA). In this assay, cells were seeded in a 96-well plate at a concentration of 2 × 10^4/well in DMEM without phenol red and supplemented with 10% FBS. The compounds were dissolved in DMSO and added to the cell monolayer. After 24 h, 10 µL of the 5 mg/mL solution of MTT was added to the cell culture, which was incubated at 37 °C for 3 h. Then, the medium was solubilized in absolute isopropanol containing 0.1 N HCl. The absorbance of converted dye was measured in an ELISA plate reader at a wavelength of 590 nm. The results were used to calculate the 50% cytotoxic concentration (CC50), defined as the concentration of RSV derivatives required to reduce cell viability by 50% compared with the solvent-treated (DMSO) control condition.

[3] = system: influenza A PR/8/H1N1 virus; assay type: cell-based
[4] = system: influenza A PR/8/H1N1 virus; assay type: cell-based; details: supernatants from A549 treated with 10-30 μg/mL, 24 h
[5] = system: GSH-mediated antioxidant response; assay: Glutathione assay in infected A549 cells; assay type: cell-based, human; details: A549, 24 h PR8 infection and treatment
Description: The total glutathione was analyzed by the Glutathione Assay Kit (ADI-900-160 Enzo) following the manufacturer’s instructions. For GSSG quantification, the samples were deproteinized with metaphosphoric acid, and an aliquot was incubated with 2-vinylpyridine to derivatize the reduced form, GSH [46]. The GSH levels were obtained by the subtraction of GSSG from the total glutathione and then normalized to the protein content of each sample determined by the Bradford method (Bio-Rad, Hercules, CA, USA).

[6] = system: influenza A PR/8/H1N1 virus; assay type: cell-based; remark: listed apart in the source
[7] = system: A549 cells; assay: MTT cytotoxicity assay; assay type: cell-based, human
Description: as §1

[8] = system: GSH level; design: method as in PMID 15838800; details: infected conditions; cited from earlier work
[9] = A549, MTT, 24 h, read-out: CC50 (concentration required to reduce cell viability by 50%)

Oc1ccc(/C=C/c2ccccc2)cc1Cl [Compound 1]
IC50 [1]: 20.7 µg/mL and 89 µM
Selectivity Index (SI) [1]: 4.2
CC50 at 24 h [2]: 87.3 µg/mL and 378 µM

Oc1ccc(/C=C/c2ccc(Cl)cc2Cl)cc1Cl [Compound 2]
IC50 [1]: 13.5 µg/mL and 45 µM
Selectivity Index (SI) [1]: 2.9
CC50 at 24 h [2]: 39.5 µg/mL and 131 µM

Oc1ccc(/C=C/c2ccc(Cl)cc2Cl)cc1 [Compound 3]
IC50 [1]: 12.2 µg/mL and 46 µM
Selectivity Index (SI) [1]: 2.4
CC50 at 24 h [2]: 30.3 µg/mL and 114 µM

Oc1ccc(/C=C/c2ccc(C(F)(F)F)cc2)cc1Cl [Compound 4]
IC50 [1]: 14.6 µg/mL and 48 µM
Selectivity Index (SI) [1]: 2.6
CC50 at 24 h [2]: 38.8 µg/mL and 129 µM

Oc1ccc(/C=C/c2ccc(C(F)(F)F)cc2)cc1 [Compound 5]
IC50 [1]: 23.4 µg/mL and 88 µM
Selectivity Index (SI) [1]: 2.5
CC50 at 24 h [2]: 59 µg/mL and 223 µM

O=[N+]([O-])c1ccc(/C=C/c2ccc(O)c(Cl)c2)cc1 [Compound 6]
early viral nucleoprotein (NP) expression [3]: decrease
inhibition of HA expression [1]: 75%
IC50 [1]: 17.1 µg/mL and 62 µM
Selectivity Index (SI) [1]: 12.4
CC50 at 24 h [2, 9]: 212 µg/mL and 770 µM
HA protein expression on MDCK cells infected with supernatants [4]: markedly reduced
rescue of GSH-mediated antioxidant response (total glutathione, GSH/GSSG) [5]: do not rescue
viral titer / viral particle production (HAU) [6]: markedly decreased; also recorded: drastically reduced

O=[N+]([O-])c1ccc(/C=C/c2ccc(O)cc2)cc1 [Compound 7]
early viral nucleoprotein (NP) expression [3]: decrease
IC50 [1]: 19.5 µg/mL and 80 µM
Selectivity Index (SI) [1]: 5.9
CC50 at 24 h [2, 9]: 116 µg/mL and 481 µM
HA protein expression on MDCK cells infected with supernatants [4]: markedly reduced
rescue of GSH-mediated antioxidant response (total glutathione, GSH/GSSG) [5]: do not rescue
viral titer / viral particle production (HAU) [6]: markedly decreased; also recorded: drastically reduced

N#Cc1ccc(/C=C/c2ccc(O)cc2)cc1 [Compound 8]
IC50 [1]: 45.1 µg/mL and 203 µM
Selectivity Index (SI) [1]: 2
CC50 at 24 h [2]: 92 µg/mL and 415 µM

COc1ccc(/C=C/c2ccc(O)cc2)cc1 [Compound 9]
IC50 [1]: 31.7 µg/mL and 104 µM
Selectivity Index (SI) [1]: 3.3
CC50 at 24 h [2]: 106 µg/mL and 466 µM

O=[N+]([O-])c1ccc(/C=C/c2ccc(O)c(Br)c2)cc1 [Compound 12, (E)-2-Bromo-4-(4-Nitrostyryl)Phenol]
melting point: 200.2 to 200.4 °C
cytotoxicity on the A549 cell monolayer [7]: did not show cytotoxicity
rescue of GSH-mediated antioxidant response (total glutathione, GSH/GSSG) [5]: do not rescue

O=[N+]([O-])c1cc(/C=C/c2ccc(Cl)cc2)ccc1O [Compound 13, (E)-4-(4-Chlorostyryl)-2-Nitrophenol]
melting point: 176.5 to 177.9 °C
early viral nucleoprotein (NP) expression [3]: decrease
cytotoxicity on the A549 cell monolayer [7]: did not show cytotoxicity
rescue of GSH-mediated antioxidant response (total glutathione, GSH/GSSG) [5]: do not rescue

Oc1ccc(C=Cc2cc(O)cc(O)c2)cc1 [RSV, 3,4′,5-trihydroxystilbene]
rescue of GSH level [8]: did not rescue
